{"source": "patent US6878364B2", "about": "“Animal model for flaviviridae infection” (Cornell Research Foundation, Inc., priority 2000, dated 2005)", "key": {"[1]": {"experiment": "Cytotoxicity on uninfected woodchuck primary hepatocytes (CytoTox96)", "type": "cell-based"}, "[2]": {"experiment": "Cytotoxicity on uninfected WCH-8 cells (methylene blue assay)", "type": "cell-based", "details": "woodchuck, uninfected woodchuck hepatic WCH-8 cells, three days of treatment"}, "[3]": {"experiment": "in vitro", "type": "cell-based", "details": "bovine"}, "[4]": {"tested_on": "cpBVDV (cytopathogenic NADL isolate of BVDV)", "experimental": "Virus propagated in bovine cells and woodchuck cell cultures was tittered in NCL cells by measuring cytopathic effects (CPE). NCL cells grown to confluence, were passaged to 96 well microtiter plates at a density of 2×10^4 cells/well (5×10^5/cm^2) and incubated for one hour to allow cell attachment. After attachment, cell cultures were inoculated with serially diluted tissue culture supernatant samples. The endpoint BVDV titer was taken as the reciprocal of the last dilution in which cells were killed 5 days post-infection in one of three triplicate wells, assayed by methylene blue staining.\nAntiviral assay: A lyophilized form of Ribavirin (Virazole^R; Viratek, Inc., Covina, Calif.) was dissolved in H2O to a yield a stock concentration of 100 mM and serially diluted two fold in culture medium prior to testing over a range of 100-0.049 μM. Ribavirin was evaluated in woodchuck WCH-8 cells and in bovine NCL cells in a 96 well format using the methylene blue assay to measure cell viability. The medium was replenished daily with drug and the antiviral effect, cytotoxicity, and reduction in viral yield determined after three days of treatment. […]\nCell killing due to cpBVDV infection and drug cytotoxicity was calculated for each experimental data point and plotted. […] A selectivity index (SI) was determined as the CC50/EC90 ratio."}, "[5]": {"tested_on": "cpBVDV (cytopathogenic NADL isolate of BVDV)", "remark": "listed apart in the source", "experimental": "(§1) BVDV stocks and titration: The cytopathogenic NADL isolate of BVDV (cpBVDV) was used for the purposes of this study. A viral stock was made by freeze-thaw of a bovine testicular cell line 5 days after infection with cpBVDV. Virus propagated in bovine cells and woodchuck cell cultures was tittered in NCL cells by measuring cytopathic effects (CPE). NCL cells grown to confluence, were passaged to 96 well microtiter plates at a density of 2×10^4 cells/well (5×10^5/cm^2) and incubated for one hour to allow cell attachment. After attachment, cell cultures were inoculated with serially diluted tissue culture supernatant samples. The endpoint BVDV titer was taken as the reciprocal of the last dilution in which cells were killed 5 days post-infection in one of three triplicate wells, assayed by methylene blue staining.\n(§2) Methylene blue assay: A quantitative measure of cell numbers was obtained through reading the absorbance of methylene blue (Sigma, St. Louis, Mo.) uptake by viable cells. Briefly, three days after infection of cells with cpBVDV, cultures were rinsed with phosphate buffered saline (PBS; Life Technologies) followed by fixation in a Hanks balanced salt solution (HBSS; LifeTechnologies) consisting of 1.25% glutaraldehyde (Fisher Scientific, Fair Lawn, N.J.) and 0.06% methylene blue (Sigma), for 1 hour at 37° C. […] The absorbance of the methylene blue in solution was measured using an ELISA plate reader (Model EL311; Bio-Tek instruments Inc., Winooski, Vt.) with a light filter setting at 630 nm. A standard curve was established for each cell line relating absorbance with cell numbers. […]\n(§3) The medium was replenished daily with drug and the antiviral effect, cytotoxicity, and reduction in viral yield determined after three days of treatment.\n(§4) Cell killing due to cpBVDV infection and drug cytotoxicity was calculated for each experimental data point and plotted. […] A drug concentration sufficient to inhibit 50% of viral induced cell killing (ckEC50) was determined using a peak, log normal, 4 parameter equation. […] A selectivity index (SI) was determined as the CC50/EC90 ratio."}, "[6]": {"tested_on": "cpBVDV (cytopathogenic NADL isolate of BVDV)", "remark": "listed apart in the source", "experimental": "as §1, §2, §3, §4"}, "[7]": {"tested_on": "HCV", "details": "cited from earlier work"}, "[8]": {"tested_on": "cpBVDV (cytopathogenic NADL isolate of BVDV)", "experiment": "microbe, parasite or virus in culture", "details": "Bovine viral diarrhea virus isolates and strains, in Marmota monax, 72 h, read-out: ckEC50 (drug concentration sufficient to inhibit 50% of viral induced cell killing)", "experimental": "as §1, §2, §3, §4"}, "[9]": {"tested_on": "cpBVDV (cytopathogenic NADL isolate of BVDV)", "experiment": "microbe, parasite or virus in culture", "details": "Bovine viral diarrhea virus isolates and strains, in Bos taurus, 72 h, read-out: ckEC50 (drug concentration sufficient to inhibit 50% of viral induced cell killing)", "experimental": "as §1, §2, §3, §4"}}, "note": "Where two headings read alike, the source gives them in different places."}
{"compound": "NC(=O)c1ncn([C@@H]2O[C@H](CO)[C@@H](O)[C@H]2O)n1", "note": "[Ribavirin, 1-β-D-ribofuranosyl-1-1,2,4-triazole-3-carboxamide]", "values": [{"measurement": "CC50", "setting": "[1]", "result": 44.8, "unit": "µM"}, {"measurement": "CC50 at 3 days", "setting": "[2]", "result": 2900, "unit": "nM"}, {"measurement": "CC50 at 3 days", "setting": "[3]", "result": 4.3, "unit": "µM"}, {"measurement": "tEC90 (drug concentration which reduced viral titers by 90%)", "setting": "[4]; cpBVDV-infected woodchuck primary hepatocytes", "result": 3, "unit": "µM"}, {"measurement": "selectivity index (CC50/tEC90)", "setting": "[4]; woodchuck primary hepatocytes", "result": 14.9}, {"measurement": "selectivity index (CC50/tEC90)", "setting": "[5]; WCH-8 cells", "result": 2.7}, {"measurement": "tEC90 (drug concentration which reduced viral titers by 90%)", "setting": "[5]; cpBVDV-infected WCH-8 cells, three days of treatment", "result": 1.1, "unit": "µM"}, {"measurement": "selectivity index (CC50/tEC90)", "setting": "[6]; NCL cells", "result": 1.7}, {"measurement": "tEC90 (drug concentration which reduced viral titers by 90%)", "setting": "[6]; cpBVDV-infected NCL cells, three days of treatment", "result": 3.1, "unit": "µM"}, {"measurement": "patients with serum amino transferase levels reduced to normal", "setting": "[7]", "result": 40, "unit": "%"}, {"measurement": "EC50", "setting": "[8]", "result": 1500, "unit": "nM"}, {"measurement": "EC50", "setting": "[9]", "result": 5.2, "unit": "µM"}]}
